Data reported in the NIST ThermoML archive (doi:10.1016/j.jct.2014.05.020).
Numbers after ± are expanded uncertainties.

Test: excess molar enthalpy (molar enthalpy of mixing); xn = mol fraction of the nth substance listed
Details: Liquid, Flow calorimetry

CCO [ethanol] + O
excess molar enthalpy [kcal/mol]
Details | 423.2 K | 523.2 K
5000 kPa, x2 = 0.1473 | 0.0939 ± 0.00359 | –
5000 kPa, x2 = 0.2673 | 0.159 ± 0.00335 | –
5000 kPa, x2 = 0.4508 | 0.215 ± 0.00335 | –
5000 kPa, x2 = 0.5845 | 0.218 ± 0.00335 | –
5000 kPa, x2 = 0.6864 | 0.196 ± 0.00311 | –
5000 kPa, x2 = 0.7665 | 0.164 ± 0.00287 | –
5000 kPa, x2 = 0.8312 | 0.128 ± 0.00287 | –
5000 kPa, x2 = 0.8845 | 0.0917 ± 0.00263 | –
5000 kPa, x2 = 0.9292 | 0.0569 ± 0.00263 | –
5000 kPa, x2 = 0.9673 | 0.0255 ± 0.00263 | –
15000 kPa, x2 = 0.1466 | 0.0918 ± 0.00382 | 0.188 ± 0.00645
15000 kPa, x2 = 0.2662 | 0.156 ± 0.0043 | 0.304 ± 0.00478
15000 kPa, x2 = 0.4493 | 0.215 ± 0.00454 | 0.401 ± 0.00454
15000 kPa, x2 = 0.5831 | 0.218 ± 0.00454 | 0.41 ± 0.00574
15000 kPa, x2 = 0.6851 | 0.197 ± 0.0043 | 0.373 ± 0.00765
15000 kPa, x2 = 0.7655 | 0.166 ± 0.0043 | 0.322 ± 0.0098
15000 kPa, x2 = 0.8304 | 0.13 ± 0.0043 | 0.261 ± 0.012
15000 kPa, x2 = 0.8839 | 0.0937 ± 0.00454 | 0.198 ± 0.0143
15000 kPa, x2 = 0.9289 | 0.0584 ± 0.00454 | 0.131 ± 0.0172
15000 kPa, x2 = 0.9671 | 0.0263 ± 0.00454 | 0.0634 ± 0.0237
